From PMC6273472, “Design, Synthesis and Biological Evaluation of 6-(2,6-Dichloro-3,5-dimethoxyphenyl)-4-substituted-1H-indazoles as Potent Fibroblast Growth Factor Receptor Inhibitors” (Molecules, 2016)
Where “and” joins values, the source holds several entries; their conditions need not be identical. Identical values can stand only once.

Key:
[1] = target: FGFR1 (Homo sapiens, UniProt P11362); assay: ELISA kinase assay (FGFR1 enzymatic assay); format: biochemical; details: for inhibition at 0.1 µM: 0.1 μmol/L compound; for inhibition at 0.1 µM / inhibition at 1 µM / inhibition at 0.01 µM: read-out: Enzyme Inhibition (%); for inhibition at 1 µM: 1 μmol/L compound; for inhibition at 0.01 µM: 0.01 μmol/L compound; for IC50: mean ± SD, two separate experiments
Chain of FGFR1 (P11362 22-822): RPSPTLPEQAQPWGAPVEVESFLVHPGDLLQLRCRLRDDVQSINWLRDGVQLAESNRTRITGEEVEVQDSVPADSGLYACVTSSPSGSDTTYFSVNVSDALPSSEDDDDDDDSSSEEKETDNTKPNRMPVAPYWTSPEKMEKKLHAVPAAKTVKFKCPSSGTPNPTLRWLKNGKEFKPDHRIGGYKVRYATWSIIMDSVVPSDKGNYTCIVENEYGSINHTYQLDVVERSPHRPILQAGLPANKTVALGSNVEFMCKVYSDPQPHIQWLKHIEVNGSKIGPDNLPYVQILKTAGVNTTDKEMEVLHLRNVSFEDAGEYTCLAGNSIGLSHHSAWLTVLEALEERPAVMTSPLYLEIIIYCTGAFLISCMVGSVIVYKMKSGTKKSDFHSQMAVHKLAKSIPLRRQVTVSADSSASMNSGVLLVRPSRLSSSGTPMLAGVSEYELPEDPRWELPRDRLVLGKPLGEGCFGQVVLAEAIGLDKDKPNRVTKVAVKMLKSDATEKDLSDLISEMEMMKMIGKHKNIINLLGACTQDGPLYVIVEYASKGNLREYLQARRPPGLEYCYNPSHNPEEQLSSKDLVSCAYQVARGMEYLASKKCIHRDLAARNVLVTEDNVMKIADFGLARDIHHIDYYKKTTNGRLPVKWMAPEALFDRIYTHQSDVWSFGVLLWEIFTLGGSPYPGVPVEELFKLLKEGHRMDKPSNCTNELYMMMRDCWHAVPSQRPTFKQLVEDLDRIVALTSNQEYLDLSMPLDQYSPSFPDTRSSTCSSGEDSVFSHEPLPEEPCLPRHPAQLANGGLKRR
Procedure: The effects of compounds on the activities of FGFR1 kinases were determined using enzyme-linked immunosorbent assays (ELISAs) with purified recombinant proteins. Briefly, 20 μg/mL poly (Glu, Tyr)4:1 (Sigma, St. Louis, MO, USA) was pre-coated in 96-well plates as a substrate. A 50-μL aliquot of 10 μmol/L ATP solution diluted in kinase reaction buffer (50 mmol/L HEPES [pH 7.4], 50 mmol/L MgCl2, 0.5 mmol/L MnCl2, 0.2 mmol/L Na3VO4, and 1 mmol/L DTT) was added to each well; 1 μL of various concentrations of compounds diluted in 1% DMSO (v/v) (Sigma) were then added to each reaction well. DMSO (1%, v/v) was used as the negative control. The kinase reaction was initiated by the addition of purified tyrosine kinase proteins diluted in 49 μL of kinase reaction buffer. After incubation for 60 min at 37 °C, the plate was washed three times with phosphate-buffered saline (PBS) containing 0.1% Tween 20 (T-PBS). Anti-phosphotyrosine (PY99) antibody (100 μL; 1:500, diluted in 5 mg/mL BSA T-PBS) was then added. After a 30-min incubation at 37 °C, the plate was washed three times, and 100 μL horseradish peroxidase-conjugated goat anti-mouse IgG (1:2000, diluted in 5 mg/mL BSA T-PBS) was added. The plate was then incubated at 37 °C for 30 min and washed 3 times. A 100-μL aliquot of a solution containing 0.03% H2O2 and 2 mg/mL o-phenylenediamine in 0.1 mol/L citrate buffer (pH 5.5) was added. The reaction was terminated by the addition of 50 μL of 2 mol/L H2SO4 as the color changed, and the plate was analyzed using a multi-well spectrophotometer (SpectraMAX 190, Molecular Devices, Palo Alto, CA, USA) at 490 nm. […] The IC50 values were calculated from the inhibition curves in two separate experiments.

Row | inhibition at 0.1 µM [1] | inhibition at 1 µM [1] | inhibition at 0.01 µM [1] | IC50 [1] | melting point | Compound
1 | 35.7% | – | 17.1% | – | – | COC(=O)c1cccc(NC(=O)c2cc(-c3c(Cl)c(OC)cc(OC)c3Cl)cc3[nH]ncc23)c1 [Compound 12a, Methyl 3-(6-(2,6-dichloro-3,5-dimethoxyphenyl)-1H-indazole-4-carboxamido)benzoate]
2 | 26.4% | – | 13.7% | 328 ± 65.7 nM | – | CCN1CCN(c2cccc(NC(=O)c3cc(-c4c(Cl)c(OC)cc(OC)c4Cl)cc4[nH]ncc34)c2)CC1 [Compound 13b, 6-(2,6-Dichloro-3,5-dimethoxyphenyl)-N-(3-(4-ethylpiperazin-1-yl)phenyl)-1H-indazole-4-carboxamide]
3 | 41.3% | – | 35.7% | 464 ± 99.1 nM | – | C=CCN1CCN(c2cccc(NC(=O)c3cc(-c4c(Cl)c(OC)cc(OC)c4Cl)cc4[nH]ncc34)c2)CC1 [Compound 13c, N-(3-(4-Allylpiperazin-1-yl)phenyl)-6-(2,6-dichloro-3,5-dimethoxyphenyl)-1H-indazole-4-carboxamide]
4 | 62.3% | – | 42.1% | 38.6 ± 0.2 nM | 155 to 157 °C | CNC(=O)c1cccc(NC(=O)c2cc(-c3c(Cl)c(OC)cc(OC)c3Cl)cc3[nH]ncc23)c1 [Compound 12b, 6-(2,6-Dichloro-3,5-dimethoxyphenyl)-N-(3-(methylcarbamoyl)phenyl)-1H-indazole-4-carboxamide]
5 | 36.8% | – | 9.9% | – | – | CCOC(=O)c1cccc(NC(=O)c2cc(-c3c(Cl)c(OC)cc(OC)c3Cl)cc3[nH]ncc23)c1 [Compound 12c, Ethyl 3-(6-(2,6-dichloro-3,5-dimethoxyphenyl)-1H-indazole-4-carboxamido)benzoate]
6 | 31.6% | – | 17.4% | – | – | COc1cc(OC)c(Cl)c(-c2cc(C(=O)Nc3cccc([N+](=O)[O-])c3)c3cn[nH]c3c2)c1Cl [Compound 12d, 6-(2,6-Dichloro-3,5-dimethoxyphenyl)-N-(3-nitrophenyl)-1H-indazole-4-carboxamide]
7 | 18.5% | – | 7.2% | – | – | COc1cc(OC)c(Cl)c(-c2cc(C(=O)Nc3cccc(N4CCN(C(C)C)CC4)c3)c3cn[nH]c3c2)c1Cl [Compound 13d, 6-(2,6-Dichloro-3,5-dimethoxyphenyl)-N-(3-(4-isopropylpiperazin-1-yl)phenyl)-1H-indazole-4-carboxamide]
8 | 60.3% | – | 35.1% | 86.2 ± 17 nM | 177 to 179 °C | COc1cc(OC)c(Cl)c(-c2cc(C(=O)Nc3cccc(-c4cncnc4)c3)c3cn[nH]c3c2)c1Cl [Compound 12i, 6-(2,6-Dichloro-3,5-dimethoxyphenyl)-N-(3-(pyrimidin-5-yl)phenyl)-1H-indazole-4-carboxamide]
9 | 58.7% | – | 28.3% | 54 ± 8.7 nM | 159 to 161 °C | COc1cc(OC)c(Cl)c(-c2cc(C(=O)Nc3cccc(N4CCOCC4)c3)c3cn[nH]c3c2)c1Cl [Compound 12f, 6-(2,6-Dichloro-3,5-dimethoxyphenyl)-N-(3-morpholinophenyl)-1H-indazole-4-carboxamide]
10 | 52.7% | – | 34.5% | 102.9 ± 0.6 nM | 188 to 190 °C | COc1cc(OC)c(Cl)c(-c2cc(C(=O)Nc3cccc(-c4cnn(C)c4)c3)c3cn[nH]c3c2)c1Cl [Compound 12h, 6-(2,6-Dichloro-3,5-dimethoxyphenyl)-N-(3-(1-methyl-1H-pyrazol-4-yl)phenyl)-1H-indazole-4-carboxamide]
11 | 36.7% | – | 17.2% | – | – | COc1cc(OC)c(Cl)c(-c2cc(C(=O)Nc3cccc(N4CCN(C)C4=O)c3)c3cn[nH]c3c2)c1Cl [Compound 12e, 6-(2,6-Dichloro-3,5-dimethoxyphenyl)-N-(3-(3-methyl-2-oxoimidazolidin-1-yl)phenyl)-1H-indazole-4-carboxamide]
12 | 72.7% | – | 48.3% | ~30.2 nM and 30.2 nM | 205 to 207 °C | COc1cc(OC)c(Cl)c(-c2cc(C(=O)Nc3cccc(N4CCN(C)CC4)c3)c3cn[nH]c3c2)c1Cl [Compound 13a, 6-(2,6-Dichloro-3,5-dimethoxyphenyl)-N-(3-(4-methylpiperazin-1-yl)phenyl)-1H-indazole-4-carboxamide]
13 | 64.7% | – | 27.7% | 118 ± 3.9 nM | 209 to 211 °C | COc1cc(OC)c(Cl)c(-c2cc(C(=O)Nc3cccc(N4CCN(C(C)=O)CC4)c3)c3cn[nH]c3c2)c1Cl [Compound 13e, N-(3-(4-Acetylpiperazin-1-yl)phenyl)-6-(2,6-dichloro-3,5-dimethoxyphenyl)-1H-indazole-4-carboxamide]
14 | 60.9% | – | 45.1% | 78.8 ± 14.2 nM | 221 to 223 °C | COc1cc(OC)c(Cl)c(-c2cc(C(=O)Nc3cccc(N4CCNCC4)c3)c3cn[nH]c3c2)c1Cl [Compound 12g, 6-(2,6-Dichloro-3,5-dimethoxyphenyl)-N-(3-(piperazin-1-yl)phenyl)-1H-indazole-4-carboxamide]

Further lines, the compound ahead of its results:

Row | Compound | inhibition at 0.1 µM [1] | inhibition at 1 µM [1] | inhibition at 0.01 µM [1] | IC50 [1] | melting point
15 | COc1cccc(NC(=O)c2cc(-c3c(Cl)c(OC)cc(OC)c3Cl)cc3[nH]ncc23)n1 [Compound 11a, 6-(2,6-Dichloro-3,5-dimethoxyphenyl)-N-(6-methoxypyridin-2-yl)-1H-indazole-4-carboxamide] | 47.2% | 79.2% | – | – | –
16 | COc1nccc(NC(=O)c2cc(-c3c(Cl)c(OC)cc(OC)c3Cl)cc3[nH]ncc23)n1 [Compound 11e, 6-(2,6-Dichloro-3,5-dimethoxyphenyl)-N-(2-methoxypyrimidin-4-yl)-1H-indazole-4-carboxamide] | 31% | 57.4% | – | – | –
17 | COc1cc(NC(=O)c2cc(-c3c(Cl)c(OC)cc(OC)c3Cl)cc3[nH]ncc23)ncn1 [Compound 11d, 6-(2,6-Dichloro-3,5-dimethoxyphenyl)-N-(6-methoxypyrimidin-4-yl)-1H-indazole-4-carboxamide] | 43.1% | 78.5% | – | – | –
18 | COc1cc(NC(=O)c2cc(-c3c(Cl)c(OC)cc(OC)c3Cl)cc3[nH]ncc23)ccn1 [Compound 11b, 6-(2,6-Dichloro-3,5-dimethoxyphenyl)-N-(2-methoxypyridin-4-yl)-1H-indazole-4-carboxamide] | 49.5% | 84.3% | – | – | –
19 | COc1ccnc(NC(=O)c2cc(-c3c(Cl)c(OC)cc(OC)c3Cl)cc3[nH]ncc23)c1 [Compound 11c, 6-(2,6-Dichloro-3,5-dimethoxyphenyl)-N-(4-methoxypyridin-2-yl)-1H-indazole-4-carboxamide] | 42.3% | 80% | – | – | –
20 | COc1cc(OC)c(Cl)c(-c2cc(C(=O)Nc3cccc(C(C)=O)c3)c3cn[nH]c3c2)c1Cl [Compound 10b, N-(3-Acetylphenyl)-6-(2,6-dichloro-3,5-dimethoxyphenyl)-1H-indazole-4-carboxamide] | 76.4% | 82.4% | – | – | –
21 | COc1ccc(NC(=O)c2cc(-c3c(Cl)c(OC)cc(OC)c3Cl)cc3[nH]ncc23)cc1 [Compound 10e, 6-(2,6-Dichloro-3,5-dimethoxyphenyl)-N-(4-methoxyphenyl)-1H-indazole-4-carboxamide] | 11.9% | 68.5% | – | – | –
22 | COc1cc(OC)c(Cl)c(-c2cc(C(=O)Nc3ccc(C(C)=O)cc3)c3cn[nH]c3c2)c1Cl [Compound 10c, N-(4-Acetylphenyl)-6-(2,6-dichloro-3,5-dimethoxyphenyl)-1H-indazole-4-carboxamide] | 32.2% | 52.9% | – | – | –
23 | COc1cccc(NC(=O)c2cc(-c3c(Cl)c(OC)cc(OC)c3Cl)cc3[nH]ncc23)c1 [Compound 10d, 6-(2,6-Dichloro-3,5-dimethoxyphenyl)-N-(3-methoxyphenyl)-1H-indazole-4-carboxamide] | 57% | 78.4% | – | – | –
24 | COc1cc(OC)c(Cl)c(-c2cc(C(=O)Nc3ccccc3)c3cn[nH]c3c2)c1Cl [Compound 10a, 6-(2,6-Dichloro-3,5-dimethoxyphenyl)-N-phenyl-1H-indazole-4-carboxamide] | 58.8% | 84.1% | 27.3% | 69.1 ± 19.8 nM | 115 to 117 °C
